Key:
[1] = target: T1, Bromodomain-containing protein 4 (Homo sapiens, UniProt O60885); assay: Inhibition of BRD4 bromodomain 1/2 (unknown origin) by alphascreen assay
MV4-11 [2] = assay: Antiproliferative activity against human MV4-11 cells assessed as reduction in cell viability incubated for 72 hrs by CellTiter-Glo luminescent cell viability assay; format: functional, cell-based; conditions: MV4-11, 72 h
[3] = target: T1, Bromodomain-containing protein 4; assay: Inhibition of BRD4 (unknown origin) at 1 uM relative to control
CAPAN-1 = assay: Antiproliferative activity against human Capan1 cells; format: functional, cell-based
BT-474 = assay: Antiproliferative activity against human BT474 cells; format: functional, cell-based
SW480 = assay: Antiproliferative activity against human SW480 cells; format: functional, cell-based
DU-145 = assay: Antiproliferative activity against human DU145 cells; format: functional, cell-based
HCT-116 = assay: Antiproliferative activity against human HCT116 cells; format: functional, cell-based
L02 = assay: Cytotoxicity against human LO2 cells at 0.5 to 40 uM incubated for 72 hrs by MTT assay; format: cell-based; conditions: l02, 72 h
[4] = target: T1, Bromodomain-containing protein 4; assay: Inhibition of BRD4 in human MV4-11 cells assessed as downregulation of c-Myc protein expression incubated for 48 hrs by Western blot method; format: cell-based
MV4-11 [5] = assay: Induction of cell cycle arrest in human MV4-11 cells assessed as increase in accumulation at G0/G1 phase incubated for 48 hrs by PI staining based flow cytometric analysis; format: functional

SMILES: CNc1cc(-c2ccc3cnn(Cc4ccc(OC)cc4)c3c2)cn(C)c1=O
- IC50 [1]: 1600 nM
- IC50 (MV4-11 [2]): 2.7 µM

SMILES: COc1ccc(Nc2nn(Cc3ccc(C)cc3)c3cc(-c4c(C)noc4C)ccc23)cc1
- IC50 (MV4-11 [2]): 11.9 µM
- inhibition [3]: < 20%

SMILES: Cc1noc(C)c1-c1ccc2c(Nc3ccc(Cl)cc3)nn(C3CCCCO3)c2c1 (centres undefined)
- IC50 (MV4-11 [2]): 7.4 µM
- inhibition [3]: < 20%

SMILES: Cc1ccc(Cn2nc(Nc3ccc(C(F)(F)F)cc3)c3ccc(-c4c(C)noc4C)cc32)cc1
- inhibition [3]: < 20%

SMILES: COc1cc(Nc2nn(C3CCCCO3)c3cc(-c4c(C)noc4C)ccc23)ccc1F (centres undefined)
- IC50 (MV4-11 [2]): 9.3 µM
- inhibition [3]: < 20%

SMILES: COc1ccc(Cn2nc(Nc3ccc(F)cc3)c3ccc(-c4c(C)noc4C)cc32)cc1
- IC50 (MV4-11 [2]): 9.1 µM
- inhibition [3]: < 20%

SMILES: CCOC(=O)Cn1ncc2ccc(-c3cc(NC)c(=O)n(C)c3)cc21
- IC50 [1]: 1900 nM
- IC50 (MV4-11 [2]): 8.77 µM

SMILES: COc1ccc(CN2CC(c3ccc(O)cc3)c3cnc(-c4c(C)noc4C)nc32)cc1 (centres undefined)
- inhibition [3]: < 20%

SMILES: CNc1cc(-c2ccc3cnn(Cc4cc(OC)cc(OC)c4)c3c2)cn(C)c1=O
- IC50 (CAPAN-1): 3.8 µM
- IC50 [1]: 550 nM
- IC50 (MV4-11 [2]): 0.19 to 0.2 µM
- IC50 (BT-474): 8.6 µM
- IC50 (SW480): 7.4 µM
- IC50 (DU-145): 2600 nM
- IC50 (HCT-116): 2900 nM

SMILES: Cc1sc2c(c1C)C(c1ccc(Cl)cc1)=N[C@@H](CC(=O)OC(C)(C)C)c1nnc(C)n1-2
- IC50 (CAPAN-1): 0.8 µM
- IC50 (MV4-11 [2]): 0.06 to 0.09 µM
- IC50 (BT-474): 1.7 µM
- IC50 (SW480): 14.1 µM
- IC50 (DU-145): 200 nM
- IC50 (HCT-116): 400 nM

SMILES: CCNc1cc(-c2ccc3cnn(Cc4ccc(F)cc4)c3c2)cn(C)c1=O
- IC50 [1]: 2250 nM
- IC50 (MV4-11 [2]): 5.65 µM

SMILES: CNc1cc(-c2ccc3cnn(Cc4ccc(OC)c(F)c4)c3c2)cn(C)c1=O
- IC50 [1]: 1400 nM
- IC50 (MV4-11 [2]): 4.98 µM

SMILES: COc1cc2cnn(Cc3ccc(F)cc3)c2cc1-c1c(C)noc1C
- IC50 (MV4-11 [2]): 1.9 µM
- inhibition [3]: 45%

SMILES: Cc1ccc(Cn2nc(Nc3ccc(F)cc3)c3ccc(-c4c(C)noc4C)cc32)cc1
- inhibition [3]: < 20%

SMILES: CNc1cc(-c2ccc3cnn(CC4CCCCC4)c3c2)cn(C)c1=O
- IC50 [1]: 1810 nM
- IC50 (MV4-11 [2]): 2.69 µM

SMILES: COc1ccc(Cn2nc(Nc3cccc(C(C)C)c3)c3ccc(-c4c(C)noc4C)cc32)cc1
- IC50 (MV4-11 [2]): 8.1 µM
- inhibition [3]: < 20%

SMILES: Cc1noc(C)c1-c1ccc2c(Nc3ccc(F)cc3)n[nH]c2c1
- IC50 (MV4-11 [2]): 7.8 µM
- inhibition [3]: < 20%

SMILES: Cc1noc(C)c1-c1ccc(-n2ncc3ccc(-c4c(C)noc4C)cc32)c(Cl)c1
- IC50 (MV4-11 [2]): 2.8 µM
- inhibition [3]: 33%

SMILES: Cc1ccc(Cn2nc(Nc3ccc(C#N)cc3)c3ccc(-c4c(C)noc4C)cc32)cc1
- IC50 (MV4-11 [2]): 5.8 µM
- inhibition [3]: < 20%

SMILES: COc1cc(F)ccc1Nc1nn(C2CCCCO2)c2ccc(-c3c(C)noc3C)cc12 (centres undefined)
- IC50 (MV4-11 [2]): 17.5 µM
- inhibition [3]: < 20%

SMILES: Cc1noc(C)c1-c1ccc2c(Nc3ccc(F)cc3)nn(C3CCCCO3)c2c1 (centres undefined)
- IC50 (MV4-11 [2]): 9.9 µM
- inhibition [3]: < 20%

SMILES: COc1cc(F)ccc1Nc1nn(C2CCCCO2)c2cc(-c3c(C)noc3C)ccc12 (centres undefined)
- IC50 (MV4-11 [2]): 8.5 µM
- inhibition [3]: < 20%

SMILES: CNc1cc(-c2ccc3cnn(Cc4ccc(C)cc4)c3c2)cn(C)c1=O
- IC50 [1]: 1600 nM
- IC50 (MV4-11 [2]): 3.28 µM

SMILES: CCNc1cc(-c2ccc3cnn(Cc4cc(OC)cc(OC)c4)c3c2)cn(C)c1=O
- IC50 [1]: 1810 nM
- IC50 (MV4-11 [2]): 2.59 µM

SMILES: CNc1cc(-c2ccc3cnn(Cc4ccc(F)cc4)c3c2)cn(C)c1=O
- IC50 [1]: 1400 nM
- IC50 (MV4-11 [2]): 2.39 µM

SMILES: COc1ccc(C)c(C2CN(Cc3ccc(F)cc3)c3nc(-c4c(C)noc4C)ncc32)c1 (centres undefined)
- inhibition [3]: < 20%

SMILES: CNc1cc(-c2ccc3cnn(CC4CC4)c3c2)cn(C)c1=O
- IC50 [1]: 1960 nM
- IC50 (MV4-11 [2]): 3.45 µM

SMILES: CNc1cc(-c2ccc3cnn(Cc4ccc(F)c([N+](=O)[O-])c4)c3c2)cn(C)c1=O
- IC50 (CAPAN-1): 4 µM
- IC50 [1]: 800 nM
- IC50 (MV4-11 [2]): 0.13 µM
- IC50 (BT-474): 6.5 µM
- IC50 (SW480): 10.1 µM
- IC50 (DU-145): 3400 nM
- IC50 (HCT-116): 2600 nM

SMILES: CNc1cc(-c2ccc3cnn(Cc4ccc(F)c(F)c4)c3c2)cn(C)c1=O
- IC50 (CAPAN-1): 3.7 µM
- IC50 [1]: 860 nM
- IC50 (MV4-11 [2]): 0.32 µM
- IC50 (BT-474): 8.8 µM
- Activity (L02): Non-Toxic
- IC50 (SW480): 8.4 µM
- inhibition [4]: Dose-dependent effect
- IC50 (DU-145): 4800 nM
- Activity (MV4-11 [5]): Dose-dependent effect
- IC50 (HCT-116): 3000 nM

SMILES: Cc1noc(C)c1-c1ccc2c(c1)c(Nc1ccc(F)cc1)nn2C1CCCCO1 (centres undefined)
- inhibition [3]: < 20%

SMILES: CNc1cc(-c2ccc3cnn(Cc4ccc(C(F)(F)F)cc4)c3c2)cn(C)c1=O
- IC50 [1]: 2400 nM
- IC50 (MV4-11 [2]): 4.37 µM
